Experiments:
[1] = tested on: E. coli (ATCC 25922) standard strain; experiment: Antibacterial property of polymerizable antibacterial monomer against E. coli (absorbance at 600 nm); type: cell-based, Escherichia coli; settings: 18 hours at 35° C.; for Optical density: diluted to 1/5, 600 nm
Experimental: (§1) The monomer was put in a 50 ml conical tube according to the content of Table 1 below, and then 25 ml of a nutrient broth (Becton Dickinson) solution, to which 3000±300 CFU/ml of E. coli (ATCC 25922) standard strain was inoculated, was injected. After culturing for 18 hours in a shaking incubator (Vision Scientific, VS-37SIF) at 35° C., the culture solution was diluted to ⅕ concentration using 1× PBS (Gibco). The absorbance of the diluted solution was measured at a wavelength of 600 nm using a UV-Vis spectrophotometer. At this time, the absorbance measured after culturing the nutrient broth solution to which the bacteria was inoculated without the addition of the monomer was compared to the absorbance of the sample to which the monomer was added, and the degree of growth of the bacteria was examined. The bacterial growth-inhibitory rate was calculated according to the following Equation 1, and the results are shown in Table 1 below. Bacterial growth-inhibitory rate(%)=[(ODReference−ODsample)/ODReference]*100 [Equation 1] in Equation, ODReference represents absorbance of the culture medium of Comparative Experimental Example 1-1 without the antibacterial material, and ODsample represents absorbance of the culture medium with the antibacterial material.

[2] = tested on: Proteus mirabilis (P. mirabilis, ATCC 29906) standard strain; experiment: Antibacterial property of polymerizable antibacterial monomer against Proteus mirabilis (absorbance at 600 nm); type: cell-based; settings: 18 hours at 35° C.; for Optical density: diluted to 1/5, 600 nm
Experimental: as §1, with “To examine the antibacterial properties” for “Bacterial growth-inhibitory rate(%)=[(ODReference−ODsample)/ODReference]*100 [Equation 1] in Equation, ODReference represents absorbance”, “monomer 2-(tert-butylamino)ethyl methacrylate included in Examples and the monomer 2-(dimethylamino)ethyl methacrylate against Proteus mirabilis, the bacterial growth-inhibitory rate (%) against Proteus mirabilis (P. mirabilis) was calculated in the same manner as in the antibacterial property evaluation for E. coli, except that a nutrient broth solution, to which 3000±300 CFU/ml of Proteus mirabilis (P. mirabilis, ATCC 29906) standard strain was inoculated instead of E. coli (ATCC 25922), was used. In calculating the bacteriostatic reduction rate using Equation 1, CReference represents CFU of bacteria after culturing with the monomer” for “culture medium”, “2-1” for “1-1”, “antibacterial” for “antibacterial material, and ODsample represents absorbance of the culture medium with the antibacterial”

[3] = 0.03 g monomer in 25 ml nutrient broth
[4] = 0.05 g monomer in 25 ml nutrient broth
[5] = 0.07 g monomer in 25 ml nutrient broth

| Compound | Bacterial growth-inhibitory rate (%) [1, 3] [%] | Optical density [1, 3] | Bacterial growth-inhibitory rate (%) [1, 4] [%] | Optical density [1, 4] | Bacterial growth-inhibitory rate (%) [1, 5] [%] | Optical density [1, 5] | Bacterial growth-inhibitory rate (%) [2, 3] [%] | Optical density [2, 3] | Bacterial growth-inhibitory rate (%) [2, 4] [%] | Optical density [2, 4] | Bacterial growth-inhibitory rate (%) [2, 5] [%] | Optical density [2, 5] |
| --- | --- | --- | --- | --- | --- | --- | --- | --- | --- | --- | --- | --- |
| C=C(C)C(=O)OCCN(C)C [2-(dimethylamino)ethyl methacrylate] | 0.00 | 0.196 | 3.67 | 0.189 | 23.98 | 0.149 | 3.37 | 0.172 | 20.22 | 0.142 | 67.98 | 0.057 |
| C=C(C)C(=O)OCCNC(C)(C)C [2-(tert-butylamino)ethyl methacrylate] | 5.61 | 0.185 | 64.29 | 0.070 | 95.41 | 0.009 | 19.10 | 0.144 | 43.82 | 0.100 | 94.94 | 0.009 |

Reference: patent publication US20230405552A1, “Super Absorbent Polymer and Preparation Method Thereof” (LG Chem, Ltd., priority 2021, published 2023)
